The target of experiment [1] is Interleukin-1 receptor-associated kinase 1 (Homo sapiens, UniProt P51617).
The target of experiment [2] is Mitogen-activated protein kinase kinase kinase 20 (Homo sapiens, UniProt Q9NYL2).
The target in experiment [3] is T1, Breakpoint cluster region protein (Homo sapiens, UniProt P11274).
T1 sequence (P11274 whole entry): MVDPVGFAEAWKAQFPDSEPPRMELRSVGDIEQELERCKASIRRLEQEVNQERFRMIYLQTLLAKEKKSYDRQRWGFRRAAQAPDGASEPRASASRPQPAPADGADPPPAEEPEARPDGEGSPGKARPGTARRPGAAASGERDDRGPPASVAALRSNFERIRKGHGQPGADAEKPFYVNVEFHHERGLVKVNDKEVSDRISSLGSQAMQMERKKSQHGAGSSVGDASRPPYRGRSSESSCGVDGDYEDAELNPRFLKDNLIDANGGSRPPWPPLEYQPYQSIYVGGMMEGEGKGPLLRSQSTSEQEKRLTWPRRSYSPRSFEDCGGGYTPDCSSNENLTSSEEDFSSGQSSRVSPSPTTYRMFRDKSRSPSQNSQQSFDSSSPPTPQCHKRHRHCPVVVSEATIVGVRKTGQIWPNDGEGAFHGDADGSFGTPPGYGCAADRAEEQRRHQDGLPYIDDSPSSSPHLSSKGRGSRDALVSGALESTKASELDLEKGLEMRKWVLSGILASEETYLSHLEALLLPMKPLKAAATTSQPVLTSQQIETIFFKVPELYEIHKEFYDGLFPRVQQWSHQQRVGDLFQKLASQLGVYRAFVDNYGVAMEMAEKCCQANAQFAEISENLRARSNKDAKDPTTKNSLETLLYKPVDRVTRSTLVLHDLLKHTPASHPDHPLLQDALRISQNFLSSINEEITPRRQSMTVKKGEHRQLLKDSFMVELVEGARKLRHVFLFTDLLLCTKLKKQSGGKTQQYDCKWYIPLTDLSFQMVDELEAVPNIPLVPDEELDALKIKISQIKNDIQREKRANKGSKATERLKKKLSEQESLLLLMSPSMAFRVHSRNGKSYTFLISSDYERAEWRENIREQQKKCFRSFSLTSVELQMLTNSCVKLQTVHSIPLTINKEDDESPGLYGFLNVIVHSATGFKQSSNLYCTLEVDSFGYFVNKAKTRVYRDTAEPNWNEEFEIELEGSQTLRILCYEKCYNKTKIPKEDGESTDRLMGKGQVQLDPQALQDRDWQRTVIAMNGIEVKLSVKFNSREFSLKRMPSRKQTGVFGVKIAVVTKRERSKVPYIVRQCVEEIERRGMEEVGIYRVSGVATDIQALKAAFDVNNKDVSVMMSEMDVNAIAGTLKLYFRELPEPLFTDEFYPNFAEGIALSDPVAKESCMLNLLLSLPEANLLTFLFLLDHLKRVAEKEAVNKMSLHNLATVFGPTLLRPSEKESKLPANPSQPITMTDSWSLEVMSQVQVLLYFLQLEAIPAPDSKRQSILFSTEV

The target in experiment [4] is T2, Glycogen phosphorylase, liver form (Homo sapiens, UniProt P06737).
T2 sequence (P06737 whole entry): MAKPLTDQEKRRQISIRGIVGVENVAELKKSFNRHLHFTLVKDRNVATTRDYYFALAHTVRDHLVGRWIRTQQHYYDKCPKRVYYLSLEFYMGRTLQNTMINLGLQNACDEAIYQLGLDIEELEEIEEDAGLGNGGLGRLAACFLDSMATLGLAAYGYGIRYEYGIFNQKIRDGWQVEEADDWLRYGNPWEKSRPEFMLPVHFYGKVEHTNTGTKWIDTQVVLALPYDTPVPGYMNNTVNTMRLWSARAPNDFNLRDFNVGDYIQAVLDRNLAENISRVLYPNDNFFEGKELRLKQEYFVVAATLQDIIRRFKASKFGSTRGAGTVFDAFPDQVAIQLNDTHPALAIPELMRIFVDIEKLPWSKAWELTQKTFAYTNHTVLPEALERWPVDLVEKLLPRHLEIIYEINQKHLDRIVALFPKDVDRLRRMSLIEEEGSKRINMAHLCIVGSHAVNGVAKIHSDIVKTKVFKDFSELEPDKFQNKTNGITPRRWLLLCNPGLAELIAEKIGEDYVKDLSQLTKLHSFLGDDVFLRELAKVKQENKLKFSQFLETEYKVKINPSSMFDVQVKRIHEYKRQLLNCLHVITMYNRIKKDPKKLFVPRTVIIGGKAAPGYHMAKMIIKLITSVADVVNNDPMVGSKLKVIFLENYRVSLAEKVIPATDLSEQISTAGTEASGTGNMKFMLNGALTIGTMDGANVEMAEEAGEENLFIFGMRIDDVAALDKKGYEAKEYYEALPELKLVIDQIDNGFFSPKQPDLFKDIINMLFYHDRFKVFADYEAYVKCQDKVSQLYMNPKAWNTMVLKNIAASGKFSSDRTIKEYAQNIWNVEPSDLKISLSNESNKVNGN
It is filed as subcellular, K-562, COLO 205, SK-N-BE(2) and MV-4-11, Cell lysate. Particulars: read-out: Kd apparent.

Experiment [5] addresses Tyrosine-protein kinase BTK (Homo sapiens, UniProt Q06187).

Active and inactive are the calls of the source. For most assays here, no stated cut-off is given here; in the data, actives have a measured Kd and inactives only a lower limit.

Interleukin-1 receptor-associated kinase 1, sequence (P51617 whole entry): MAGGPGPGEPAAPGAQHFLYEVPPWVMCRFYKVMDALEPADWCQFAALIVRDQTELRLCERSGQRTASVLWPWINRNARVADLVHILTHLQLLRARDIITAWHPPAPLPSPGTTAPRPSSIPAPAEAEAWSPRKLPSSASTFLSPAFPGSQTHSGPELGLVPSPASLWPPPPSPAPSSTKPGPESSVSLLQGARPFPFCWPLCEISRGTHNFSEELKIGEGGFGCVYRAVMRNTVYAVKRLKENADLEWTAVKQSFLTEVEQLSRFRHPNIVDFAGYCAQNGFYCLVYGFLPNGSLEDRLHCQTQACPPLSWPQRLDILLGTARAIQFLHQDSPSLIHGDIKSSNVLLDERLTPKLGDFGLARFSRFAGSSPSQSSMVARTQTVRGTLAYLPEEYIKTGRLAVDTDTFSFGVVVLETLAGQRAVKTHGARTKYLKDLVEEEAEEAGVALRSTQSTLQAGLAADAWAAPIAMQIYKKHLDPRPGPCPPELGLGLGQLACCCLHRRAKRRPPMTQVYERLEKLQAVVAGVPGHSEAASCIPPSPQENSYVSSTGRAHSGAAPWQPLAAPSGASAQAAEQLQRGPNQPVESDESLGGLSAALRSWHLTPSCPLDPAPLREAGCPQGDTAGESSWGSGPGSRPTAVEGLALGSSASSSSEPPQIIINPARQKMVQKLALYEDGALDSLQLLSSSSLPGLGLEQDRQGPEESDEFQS
Tyrosine-protein kinase BTK, sequence (Q06187 whole entry): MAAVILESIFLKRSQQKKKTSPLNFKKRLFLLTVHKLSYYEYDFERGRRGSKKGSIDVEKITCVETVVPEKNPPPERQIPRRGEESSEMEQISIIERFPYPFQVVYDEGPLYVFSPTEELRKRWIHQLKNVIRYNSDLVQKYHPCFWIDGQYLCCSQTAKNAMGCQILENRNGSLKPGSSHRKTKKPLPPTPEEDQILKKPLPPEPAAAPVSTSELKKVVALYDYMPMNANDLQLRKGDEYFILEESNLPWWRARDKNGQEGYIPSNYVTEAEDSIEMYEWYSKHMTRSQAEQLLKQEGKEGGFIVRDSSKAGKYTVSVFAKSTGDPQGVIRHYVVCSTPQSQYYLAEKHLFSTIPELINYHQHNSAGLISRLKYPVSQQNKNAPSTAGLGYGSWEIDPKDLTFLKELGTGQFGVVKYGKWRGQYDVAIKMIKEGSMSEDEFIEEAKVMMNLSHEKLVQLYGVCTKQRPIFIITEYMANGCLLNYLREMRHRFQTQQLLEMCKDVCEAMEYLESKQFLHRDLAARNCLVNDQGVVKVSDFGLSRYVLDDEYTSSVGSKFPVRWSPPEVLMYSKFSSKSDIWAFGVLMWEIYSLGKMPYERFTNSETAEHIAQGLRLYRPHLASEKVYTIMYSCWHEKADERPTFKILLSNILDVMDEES
Mitogen-activated protein kinase kinase kinase 20, sequence (Q9NYL2 whole entry): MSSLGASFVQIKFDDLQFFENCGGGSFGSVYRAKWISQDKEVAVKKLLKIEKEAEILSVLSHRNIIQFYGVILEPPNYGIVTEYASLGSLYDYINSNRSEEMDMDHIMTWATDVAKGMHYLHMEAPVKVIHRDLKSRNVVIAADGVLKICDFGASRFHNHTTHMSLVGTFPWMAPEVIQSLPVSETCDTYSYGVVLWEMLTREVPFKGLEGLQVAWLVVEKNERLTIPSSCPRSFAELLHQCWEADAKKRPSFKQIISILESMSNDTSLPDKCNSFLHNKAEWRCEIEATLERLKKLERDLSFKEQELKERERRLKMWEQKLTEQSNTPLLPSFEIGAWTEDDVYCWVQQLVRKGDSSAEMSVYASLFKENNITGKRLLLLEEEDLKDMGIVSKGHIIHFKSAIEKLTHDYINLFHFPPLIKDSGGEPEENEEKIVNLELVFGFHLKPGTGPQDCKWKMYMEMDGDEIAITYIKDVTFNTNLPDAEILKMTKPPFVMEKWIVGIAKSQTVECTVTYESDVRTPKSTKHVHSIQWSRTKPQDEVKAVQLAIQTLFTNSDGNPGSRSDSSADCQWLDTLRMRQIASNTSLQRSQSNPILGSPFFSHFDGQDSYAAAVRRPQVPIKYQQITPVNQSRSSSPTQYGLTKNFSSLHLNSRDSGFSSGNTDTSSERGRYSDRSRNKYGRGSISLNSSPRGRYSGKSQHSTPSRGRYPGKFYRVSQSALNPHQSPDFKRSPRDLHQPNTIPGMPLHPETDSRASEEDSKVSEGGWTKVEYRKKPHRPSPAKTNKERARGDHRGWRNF

For `CNS(=O)(=O)Nc1nccc(Cc2c(C)c3ccc(Oc4ncccn4)cc3oc2=O)c1F` [AVUTOMETINIB], the Kd in experiment [1], in experiment [2], in experiment [3], in experiment [4] and in experiment [5] was > 30 µM (inactive) throughout.

Take `COc1ccc(-c2ccc3c(N4CCOC[C@@H]4C)nc(N4CCOC[C@@H]4C)nc3n2)cc1CO` [AZD-8055]: the Kd in experiment [1], in experiment [2], in experiment [3], in experiment [4] and in experiment [5] was > 30 µM (inactive) in each case.

On to `O=C(O)[C@]1(Cc2cccc(Nc3nccs3)n2)CC[C@@H](Oc2cccc(Cl)c2F)CC1` [MK-5108], for which the Kd in experiment [1] is 1.58 µM (active); in experiment [2], > 30 µM (inactive); in experiment [3], 0.011 µM (active); in experiment [4] it was > 30 µM (inactive); in experiment [5], > 30 µM (inactive).

In the case of `COc1cc(N2CCC(N3CCN(C)CC3)CC2)ccc1Nc1ncnc(Nc2ccccc2S(=O)(=O)C(C)C)n1` [ASP-3026], the Kd is > 30 µM (inactive) in experiment [1]; > 30 µM (inactive) in experiment [2]; > 30 µM (inactive) in experiment [3]; > 30 µM (inactive) in experiment [4]; 0.494 µM (active) in experiment [5].

With `CN1CCC(CNc2ccc3ncc(-c4cccc(OC(F)(F)F)c4)n3n2)CC1` [SGI-1776], the Kd in experiment [1], in experiment [2], in experiment [3], in experiment [4] and in experiment [5] was > 30 µM (inactive) each time.

Turning to `CC(=O)Nc1cccc(-n2c(=O)n(C3CC3)c(=O)c3c(Nc4ccc(I)cc4F)n(C)c(=O)c(C)c32)c1` [TRAMETINIB], the Kd in experiment [1], in experiment [2], in experiment [3], in experiment [4] and in experiment [5] was > 30 µM (inactive) in each case.

For `CCCS(=O)(=O)Nc1ccc(F)c(C(=O)c2c[nH]c3ncc(-c4ccc(Cl)cc4)cc23)c1F` [VEMURAFENIB], the Kd was > 30 µM (inactive) in experiment [1]; 0.316 µM (active) in experiment [2]; > 30 µM (inactive) in experiment [3]; > 30 µM (inactive) in experiment [4]; > 30 µM (inactive) in experiment [5].

For `COCCNCc1ccc(-c2cc3nccc(Oc4ccc(NC(=S)NC(=O)Cc5ccc(F)cc5)cc4F)c3s2)nc1` [GLESATINIB], the Kd in experiment [1] is > 30 µM (inactive); in experiment [2], > 30 µM (inactive); in experiment [3], 0.858 µM (active); in experiment [4] it was > 30 µM (inactive); in experiment [5], > 30 µM (inactive).

Turning to `COC(=O)[C@@]1(O)C[C@H]2O[C@]1(C)n1c3ccccc3c3c4c(c5c6ccccc6n2c5c31)C(=O)NC4` [K-252A], the Kd in experiment [1] is > 30 µM (inactive); in experiment [2], > 30 µM (inactive); in experiment [3], > 30 µM (inactive); in experiment [4], > 30 µM (inactive); in experiment [5], 1.57 µM (active).

On to `Cn1cc(-c2ccc3nnc(C(F)(F)c4ccc5ncccc5c4)n3n2)cn1` [JNJ-38877605], for which the Kd in experiment [1], in experiment [2], in experiment [3], in experiment [4] and in experiment [5] was > 30 µM (inactive) throughout.

For the compound `Cc1cc([C@@H](C)Nc2ccccc2C(=O)O)c2nc(N3CCOCC3)cc(=O)n2c1` [AZD-6482], the Kd in experiment [1], in experiment [2], in experiment [3], in experiment [4] and in experiment [5] was > 30 µM (inactive) each time.

For the compound `COc1cc(CCc2cc(NC(=O)c3ccc(N4C[C@@H](C)N[C@@H](C)C4)cc3)n[nH]2)cc(OC)c1` [AZD-4547], the Kd is > 30 µM (inactive) in experiment [1]; 9.54 µM (active) in experiment [2]; > 30 µM (inactive) in experiment [3]; > 30 µM (inactive) in experiment [4]; > 30 µM (inactive) in experiment [5].

For `CNC(=O)c1ccc(-c2cnc3ncc(Cc4ccc5ncccc5c4)n3n2)cc1F` [CAPMATINIB], the Kd in experiment [1], in experiment [2], in experiment [3], in experiment [4] and in experiment [5] was > 30 µM (inactive) each time.

For the compound `CN1CC[C@@H](c2c(O)cc(O)c3c(=O)cc(-c4ccccc4Cl)oc23)[C@@H]1CO`, the Kd in experiment [1], in experiment [2], in experiment [3], in experiment [4] and in experiment [5] was > 30 µM (inactive) in each case.

For `N[C@@H]1CCCN(c2c(/C=C3\SC(=O)NC3=O)cccc2-c2ccccc2)C1`, the Kd in experiment [1], in experiment [2], in experiment [3], in experiment [4] and in experiment [5] was > 30 µM (inactive) in each case.

As for `CCN1CCN(Cc2ccc(-c3cc4c(N[C@H](C)c5ccccc5)ncnc4[nH]3)cc2)CC1` [AEE-788], the Kd in experiment [1] was > 30 µM (inactive); in experiment [2], 13.6 µM (active); in experiment [3] it was 0.495 µM (active); in experiment [4] it was > 30 µM (inactive); in experiment [5] it was > 30 µM (inactive).

In the case of `C[C@@H]1CN(Cc2ccc(F)cc2)[C@@H](C)CN1C(=O)c1cc2c(C(=O)C(=O)N(C)C)cn(C)c2cc1Cl` [TALMAPIMOD], the Kd in experiment [1], in experiment [2], in experiment [3], in experiment [4] and in experiment [5] was > 30 µM (inactive) in each case.

With `O=C(Nc1ccc(-c2ccnc(Nc3ccc(N4CCOCC4)cc3)n2)cc1)C1CCCN1` (stereo not given) [XL-019], the Kd in experiment [1], in experiment [2], in experiment [3], in experiment [4] and in experiment [5] was > 30 µM (inactive) throughout.

Turning to `CN1CCC(COc2cnc(-c3cccc(Cn4nc(-c5cccc(C#N)c5)ccc4=O)c3)nc2)CC1` [TEPOTINIB], the Kd in experiment [1], in experiment [2], in experiment [3], in experiment [4] and in experiment [5] was > 30 µM (inactive) each time.

On to `CCn1c(=O)c(-c2cc[nH]n2)cc2c(C)nc(N)nc21` [VOXTALISIB], for which the Kd in experiment [1], in experiment [2], in experiment [3], in experiment [4] and in experiment [5] was > 30 µM (inactive) throughout.

The record behind these values is ChEMBL document CHEMBL3991601, “The target landscape of clinical kinase drugs” (Science, 2017).
